Broadly, the IC50 is the concentration needed to halve the response being measured.

Each structure is given as a SMILES string.

The first assay deals with full-length recombinant human FYN A (Homo sapiens (Human), UniProt P06241). The experiment in a line: ADP-Glo Kinase Assay of FYN kinase inhibition. In kind it is biochemical. The following applies: primary screen, initial compounds. Put shortly: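 ADP-Glo read-out of peptide phosphorylation after 90 min RT with 12.5 pmol ATP and 100 pg 12-mer substrate. Enzyme was N-GST full-length human FYN A from insect cells, 3 pg, pre-incubated 30 min with compound, 10 points from 10 μM top, 3-fold steps; IC50 from curve.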
Sequence of full-length recombinant human FYN A (P06241 whole entry): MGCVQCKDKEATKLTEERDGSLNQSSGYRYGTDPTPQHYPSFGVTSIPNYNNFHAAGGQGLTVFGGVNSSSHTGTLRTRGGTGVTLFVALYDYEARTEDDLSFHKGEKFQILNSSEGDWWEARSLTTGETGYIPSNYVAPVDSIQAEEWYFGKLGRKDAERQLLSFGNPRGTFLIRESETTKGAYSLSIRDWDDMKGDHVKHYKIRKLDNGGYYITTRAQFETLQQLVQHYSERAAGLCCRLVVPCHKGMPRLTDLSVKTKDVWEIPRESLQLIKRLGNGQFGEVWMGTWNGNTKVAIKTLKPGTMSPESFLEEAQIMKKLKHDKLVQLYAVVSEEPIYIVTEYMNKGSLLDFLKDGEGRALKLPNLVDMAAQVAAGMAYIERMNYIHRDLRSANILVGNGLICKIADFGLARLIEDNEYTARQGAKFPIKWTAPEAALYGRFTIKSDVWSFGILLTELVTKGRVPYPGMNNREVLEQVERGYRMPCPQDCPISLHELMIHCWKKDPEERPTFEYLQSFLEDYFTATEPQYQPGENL
In general terms: In ADP-Glo the light output rises with the ADP produced.
Consider `COc1ccc(-c2cnc3ccc(N[C@H](CO)C(C)C)nn23)cc1OC` [229_0254_0079, (2S)-2-[[3-(3,4-dimethoxyphenyl)imidazo[1,2-b]pyridazin-6-yl]amino]-3-methyl-butan-1-ol], for which the IC50 came out at 778 nM.

Take `c1cc(-c2cnc3ccc(NCc4ccc5c(c4)OCO5)nn23)ccn1` [229_0236_0069, N-(1,3-benzodioxol-5-ylmethyl)-3-(4-pyridyl)imidazo [1,2-b]pyridazin-6-amine]: the half-maximal inhibitory concentration (IC50) came out at 380 nM. Still for that read-out and setting: in the case of `COc1ccccc1-c1n[nH]c2nccc(-c3cccc(F)c3)c12` [Compound 501, 4-(3-fluorophenyl)-3-[2-methoxy-phenyl)-1H-pyrazolo[3,4-b]pyridine] it was 1350 nM; in that of `CCCNc1ccc2ncc(-c3ccsc3)n2n1` [229_0226_0074, N-propyl-3-(3-thienyl)imidazo [1,2-b]pyridazin-6-amine], 4040 nM; in that of `O=C(NCCO)c1ccc(-c2cn3c(-c4ccc(O)cc4)cnc3cn2)cc1` [388_0080_0328, N-(2-hydroxyethyl)-4-[3-(4-hydroxyphenyl)imidazo[1,2-a]pyrazin-6-yl]benzamide], 641 nM. The same measure, in the same setting: in the case of `COc1cccc(-c2cnc3ccc(NC4CCOCC4)nn23)c1` [229_0242_4140, 3-(3-methoxy-phenyl)-N-tetrahydro-pyran-4-yl-imidazo[l,2-b]pyridazin-6-amine] it was 870 nM.

As to `COc1ccc(-c2cnc(N)c(-c3ccc(CO)cc3)c2)cc1OC` [382_0285_0079, [4-[2-amino-5-(3,4-dimethoxy-phenyl)-3-pyridyl]phenyl] methanol], the IC50 came out at 5130 nM. Same read-out and setting: in the case of `CC(C)CNc1nn2c(-c3cccc(C(=O)N(C)C)c3)cnc2s1` [Compound 258, 3-[2-(isobutylamino)imidazo[2,1-d] [1,3,4]thiadiazol-5-yl]-N,N-dimethyl-benzamide] it was 283 nM. On the same count and under the same terms, in the case of `CN(C)CCNC(=O)c1cccc(-c2cnc3ccc(-c4ccc5c(c4)OCO5)nn23)c1` [Compound 455, 3-[6-(1,3-benzodioxol-5-yl)imidazo[1,2-b]pyridazin-3-yl]-N-(2-dimethylamino-ethyl)benzamide] it was 2020 nM; in that of `CC(=O)c1ccc(-c2cnc(N)c(-c3cccc(N(C)C)c3)c2)s1` [Compound 541, 1-[5-[6-amino-5-[3-(dimethyl-amino)phenyl]-3-pyridyl]-2-thienyl]ethanone], 3420 nM.

As for `c1cc2cc(-c3cnc4ccc(NC5CCOCC5)nn34)ccc2[nH]1` [229_0242_0204, 3-(1H-indol-5-yl)-N-tetrahydropyran-4-yl-imidazo[1,2-b]pyridazin-6-amine], the IC50 was determined as 1170 nM. The same measure, in the same setting: in the case of `CCC(CO)Nc1ccc2ncc(-c3ccc(CO)cc3)n2n1` (stereo not drawn) [229_0153_0285, 2-[[3-[4-(hydroxy-methyl)phenyl]imidazo[1,2-b]pyridazin-6-yl]amino]butan-1-ol] it was 2470 nM; in that of `CN(C)c1cccc(-c2cc(-c3cccc(CO)c3)cnc2N)c1` [382_0135_0291, [3-[6-amino-5-[3-(dimethylamino)phenyl]-3-pyridyl]phenyl] methanol], 2700 nM. Same read-out and setting: in the case of `COc1ccccc1-c1ccc2ncc(-c3cccnc3)n2n1` [Compound 394, 6-(2-methoxy-phenyl)-3-(3-pyridyl)imidazo [1,2-b]pyridazine] it was 2350 nM; in that of `Nc1cccc(-c2cncc(NCc3ccccc3)n2)c1` [035_0232_0005, 6-(3-aminophenyl)-N-benzyl-pyrazin-2-amine], 6680 nM; in that of `COc1cc(-c2cnc3ccc(-c4ccccc4OC)nn23)ccc1O` [Compound 385, 2-methoxy-4-[6-(2-methoxy-phenyl)imidazo[1,2-b]pyridazin-3-yl]phenol], 959 nM. The same measure, in the same setting: in the case of `COc1cc(-c2ccc3ncc(-c4ccc(CO)cc4)n3n2)ccc1O` [Compound 299, 4-[3-[4-(hydroxymethyl)phenyl]imidazo [1,2-b]pyridazin-6-yl]-2-methoxy-phenol] it was 223 nM.

For `Oc1cccc(-c2cnc3ccc(-c4ccc(F)cc4)nn23)c1` [Compound 403, 3-[6-(4-fluorophenyl)imidazo[1,2-b]pyridazin-3-yl]phenol], the IC50 was found to be 11900 nM. The same measure, in the same setting: in the case of `Cc1ccc(Nc2ccn3ncc(-c4cccc(O)c4)c3n2)cc1NS(C)(=O)=O` [294_0123_0284, N-[5-[[3-(3-hydroxyphenyl)pyrazolo[1,5-a]pyrimidin-5-yl]amino]-2-methyl-phenyl]methane-sulfonamide] it was 3170 nM; in that of `CN(C)C(=O)c1ccc(-c2ccnc3[nH]nc(-c4ccsc4)c23)cc1` [Compound 494, N,N-dimethyl-4-[3-(3-thienyl)-1H-pyrazolo[3,4-b]pyridin-4-yl]benzamide], 11200 nM; in that of `CC(=O)Nc1cccc(-c2cnc3ccc(-c4ccc(F)c(Cl)c4)nn23)c1` [Compound 434, N-[3-[6-(3-chloro-4-fluoro-phenyl)imidazo [1,2-b]pyridazin-3-yl]phenyl] acetamide], 525 nM.

Take `CC(=O)Nc1cccc(-c2cnc3ccc(-c4cccc(OC(F)(F)F)c4)nn23)c1` [Compound 276, N-[3-[6-[3-(trifluoromethoxy)phenyl]imidazo [1,2-b]pyridazin-3-yl]phenyl] acetamide]: the 50% inhibitory concentration (IC50) stood at 1500 nM.

The same assay, now with this note: secondary screen, re-synthesized and expanded compounds.
With `COc1cc(-c2cnc3ccc(-c4cccc(NC(C)=O)c4)nn23)ccc1O` [BF000726454, N-[3-[3-(4-hydroxy-3-methoxy-phenyl)-imidazo[1,2-b]pyridazin-6-yl]phenyl]-acetamide], the half-maximal inhibitory concentration (IC50) is 104 nM. For the molecule `c1ccc(CNc2ccc3ncc(-c4ccc5c(c4)OCO5)n3n2)nc1` [BF000146330, 3-(1,3-benzodioxol-5-yl)-N-(2-pyridyl-methyl)-imidazo[1,2-b]pyridazin-6-amine], the IC50 is 355 nM. Still for that read-out and setting: in the case of `CN(C)C(=O)c1cccc(-c2cnc3sc(NC4CCC(O)CC4)nn23)c1` (stereo not drawn) [BF000717418, 3-[2-[(4-hydroxy-cyclohexyl)-amino]-imidazo[2,1-b][1,3,4]-thiadiazol-5-yl]-N,N-dimethyl-benzamide] it was 288 nM; in that of `CN1CCN(c2ccc(-c3cn4c(-c5ccc(O)cc5)cnc4cn3)cc2)CC1` [BF000333878, 4-[6-[4-(4-methyl-piperazin-1-yl)phenyl]-imidazo[1,2-a]pyrazin-3-yl]phenol], 465 nM; in that of `COc1cc(-c2cc(-c3cccc(C(=O)NCCO)c3)cnc2N)cc(OC)c1OC` [BF000312542, 3-[6-amino-5-(3,4,5-trimethoxy-phenyl)-3-pyridyl]-N-(2-hydroxy-ethyl)-benzamide], 1000 nM. For `COc1cc(-c2cnc3ccc(NCCCO)nn23)ccc1O` [BF000146250, 4-[6-(3-hydroxy-propylamino)-imdazo[1,2-b]pyridazin-3-yl]-2-methoxy-phenol], the 50% inhibitory concentration (IC50) was 206 nM.

Consider `COc1cc(-c2cc(-c3cccc(C(N)=O)c3)cnc2N)cc(OC)c1OC` [BF000312539, 3-[6-amino-5-(3,4,5-trimethoxy-phenyl)-3-pyridyl]-benzamide], for which the half-inhibitory concentration (IC50) came out at 494 nM. With `COc1cc(-c2cnc3cnc(-c4ccc(C(=O)NCCCN(C)C)cc4)cn23)ccc1O` [BF000334019, N-[3-(dimethyl-amino)-propyl]-4-[3-(4-hydroxy-3-methoxy-phenyl)-imidazo[1,2-a]pyrazin-6-yl]benzamide], the 50% inhibitory concentration (IC50) was determined as 647 nM.

For the origin of these results see patent US10688093B2, “Methods, compositions, and uses of novel Fyn kinase inhibitors” (priority 2015, dated 2020).
